As a reminder, the GI50 is the concentration at which growth is held to half of that of the control.

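Protocol summary: plate cells (96-well), add compound at 5 concentrations, incubate 48 h, interpolate endpoints linearly. At the GI50, growth is halved.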 Active and inactive are the calls of the source. No stated cut-off is given here; in the data, active = GI50 up to about 1.1 µM and inactive = higher. Starred links: 1 amine or outer side, 2 acyl side, 3 side chain; linkers in the order of their positions; H or OH if unused. Non-standard residues stand in square brackets, D forms with d. Residues, ends and D or L forms follow the SMILES beside them. *: point of attachment. X47 = CCC(=O)CC1CC(C)CC(C(=O)[*:2])N1[*:1]; X46 = CCCCCCCCC(C)C(=O)*; Aib = CC(C)(N)C(=O)O; X48 = CC(CN(C)CCO)N*

Among the test systems are SN12C; M14; MDA-MB-231; HCC 2998; HCT-15; SF-539; COLO 205; SK-MEL-28; SNB-19; SR; NCI-H522; NCI/ADR-RES; SNB-75; HL-60; CAKI-1; UACC-62; KM12; SW-620; T47D; MOLT-4.
What all share (test): DTP human tumour cell line panel, 48 h

Consider `OC1(C(O)(c2ccc(-c3ccccc3)cc2)c2ccc(-c3ccccc3)cc2)CCCCC1`, for which the GI50 was > 100 µM (inactive) in the assay on SN12C; > 100 µM (inactive) in the assay on M14; > 100 µM (inactive) in the assay with MDA-MB-231; 85.3 µM (inactive) with HCC 2998; 23 µM in the assay on HCT-15; > 100 µM (inactive) in the assay with SF-539. The GI50 is > 100 µM (inactive) in the assay on COLO 205; > 100 µM (inactive) in the assay with SK-MEL-28; > 100 µM (inactive) in the assay on SNB-19; 28.6 µM (inactive) in the assay with SR; > 100 µM (inactive) in the assay on NCI-H522; > 100 µM (inactive) in the assay with NCI/ADR-RES. Further, the GI50 in the assay on SNB-75, in the assay on HL-60, in the assay with CAKI-1, in the assay on UACC-62, in the assay on KM12 and in the assay on SW-620 was > 100 µM (inactive) throughout. Further, the GI50 was > 100 µM (inactive) in the assay on T47D and 23.9 µM (inactive) in the assay on MOLT-4.
Take `Cc1nc2ccc(F)cc2c2c1CCO2`: the GI50 was 30.3 µM (inactive) with SN12C; 99.1 µM (inactive) in the assay with M14; 20.1 µM (inactive) in the assay on MDA-MB-231; 79.1 µM (inactive) in the assay on HCC 2998; above 100 µM with HCT-15; > 100 µM (inactive) with SF-539. The GI50 in the assay on COLO 205 was 72.8 µM (inactive); with SK-MEL-28, > 100 µM (inactive); in the assay on SNB-19, > 100 µM (inactive); in the assay on SR, > 100 µM (inactive); with NCI-H522, > 100 µM (inactive); with NCI/ADR-RES, > 100 µM (inactive). Further, the GI50 in the assay with SNB-75 was > 100 µM (inactive); in the assay on HL-60, 24.5 µM (inactive); with CAKI-1 it was 15.2 µM (inactive); with UACC-62, > 100 µM (inactive); in the assay with KM12 it was > 100 µM (inactive); with SW-620, > 100 µM (inactive). The GI50 in the assay on T47D is 52.6 µM (inactive); in the assay on MOLT-4, > 100 µM (inactive).
For the compound `COC(=O)CNS(=O)(=O)c1ccc(-c2c3nc(c(-c4ccc(S(=O)(=O)NCC(=O)OC)cc4)c4ccc([nH]4)c(-c4ccc(S(=O)(=O)NCC(=O)OC)cc4)c4nc(c(-c5ccc(S(=O)(=O)NCC(=O)OC)cc5)c5ccc2[nH]5)C=C4)C=C3)cc1`, the GI50 is > 100 µM (inactive) with SN12C; 18.7 µM (inactive) in the assay with M14; 42.2 µM (inactive) in the assay on MDA-MB-231; > 100 µM (inactive) in the assay with HCC 2998; above 100 µM in the assay on HCT-15; > 100 µM (inactive) with SF-539. The GI50 in the assay on COLO 205, in the assay on SK-MEL-28, in the assay with SNB-19, in the assay with SR, with NCI-H522 and with NCI/ADR-RES was > 100 µM (inactive) in each case. For the same compound, the GI50 in the assay with SNB-75 was > 100 µM (inactive); in the assay on HL-60 it was > 100 µM (inactive); in the assay on CAKI-1, > 100 µM (inactive); in the assay with UACC-62, 62.2 µM (inactive); with KM12, 50.7 µM (inactive); with SW-620, > 100 µM (inactive). Moreover, the GI50 in the assay on T47D and with MOLT-4 was > 100 µM (inactive) throughout.
For `CCCCCCCCC(C)C(=O)N1CCCC1C(=O)N1C(CC(=O)CC)CC(C)CC1C(=O)NC(C)C(=O)NC(C)(C)C(=O)NC(C)(C)C(=O)NC(C(=O)NC(C)C(=O)NC(C)(C)C(=O)NC(C)(C)C(=O)NC(C)CN(C)CCO)C(C)CC` (stereo not given) (X46-P[X47]A[Aib][Aib]IA[Aib][Aib]-X48; configuration not given here), the GI50 was 0.115 µM (active) with SN12C; 0.593 µM (active) in the assay on M14; 0.56 µM (active) with MDA-MB-231; 0.0385 µM (active) with HCC 2998; 0.406 µM in the assay on HCT-15; 0.211 µM (active) in the assay with SF-539. Also, the GI50 in the assay with COLO 205 is 0.0135 µM (active); with SK-MEL-28, 2.89 µM (inactive); in the assay with SNB-19 it was 0.214 µM (active); with SR, 0.0294 µM (active); with NCI-H522 it was < 0.01 µM (active); with NCI/ADR-RES, 0.435 µM (active). In addition, the GI50 in the assay with SNB-75 is 0.382 µM (active); in the assay on HL-60, < 0.0106 µM (active); with CAKI-1, 0.818 µM (active); in the assay with UACC-62, 1.89 µM (inactive); with KM12 it was 0.142 µM (active); in the assay on SW-620 it was 0.0794 µM (active). The GI50 in the assay with T47D is < 0.01 µM (active); in the assay on MOLT-4 it was 0.08 µM (active).
Take `C=CC(C)CCC(C/C=C(\C)CCCC(C)C)C(=C)CCCC(C)C` (stereo not given): the GI50 with SN12C was > 100 µM (inactive); in the assay on M14 it was > 100 µM (inactive); with MDA-MB-231, > 100 µM (inactive); in the assay on HCC 2998, > 100 µM (inactive); in the assay with HCT-15 it was above 100 µM; in the assay with SF-539, > 100 µM (inactive). In addition, the GI50 with COLO 205, in the assay with SK-MEL-28, with SNB-19, in the assay with SR, with NCI-H522 and in the assay with NCI/ADR-RES was > 100 µM (inactive) throughout. Besides, the GI50 in the assay with SNB-75, in the assay with HL-60, in the assay on CAKI-1, in the assay on UACC-62, in the assay on KM12 and in the assay with SW-620 was > 100 µM (inactive) throughout. In addition, the GI50 in the assay with T47D and in the assay on MOLT-4 was > 100 µM (inactive) throughout.
With `CC(=O)OC1C(O)COC(O[C@H]2CC[C@]34C[C@]35CC[C@]3(C)C([C@@]6(C)CC[C@@H](C(C)(C)O)O6)[C@@H](O)C[C@@]3(C)C5C[C@H](OC3OCC(O)C(O)C3O)[C@H]4C2(C)C)C1OC1OCC(O)C(O)C1O` (stereo not given in full), the GI50 in the assay on SN12C is > 100 µM (inactive); with M14, > 100 µM (inactive); with MDA-MB-231, > 100 µM (inactive); with HCC 2998 it was > 100 µM (inactive); with HCT-15 it was above 100 µM; with SF-539 it was > 100 µM (inactive). Besides, the GI50 in the assay on COLO 205, with SK-MEL-28, in the assay on SNB-19, with SR, in the assay on NCI-H522 and with NCI/ADR-RES was > 100 µM (inactive) throughout. Also, the GI50 with SNB-75 is > 100 µM (inactive); in the assay on HL-60 it was 11.6 µM (inactive); in the assay on CAKI-1, > 100 µM (inactive); with UACC-62, > 100 µM (inactive); with KM12 it was > 100 µM (inactive); in the assay on SW-620, > 100 µM (inactive). Also, the GI50 with T47D and with MOLT-4 was > 100 µM (inactive) throughout.
With `C=C1c2nc3ccccc3n2C=C(c2ccc(OC)cc2)N1c1ccccc1`, the GI50 was 24 µM (inactive) in the assay with SN12C; 4.43 µM (inactive) in the assay on M14; 11.1 µM (inactive) with MDA-MB-231; 3.75 µM (inactive) in the assay on HCC 2998; 3.1 µM in the assay on HCT-15; 6.67 µM (inactive) with SF-539. Further, the GI50 is 5.36 µM (inactive) with COLO 205; 29.6 µM (inactive) in the assay with SK-MEL-28; 11.3 µM (inactive) in the assay on SNB-19; 1.96 µM (inactive) in the assay on SR; 2.21 µM (inactive) in the assay with NCI-H522; 2.34 µM (inactive) with NCI/ADR-RES. Also, the GI50 in the assay on SNB-75 is 4.99 µM (inactive); in the assay with HL-60 it was 1.59 µM (inactive); in the assay on CAKI-1, 37.8 µM (inactive); in the assay on UACC-62 it was 3.67 µM (inactive); with KM12 it was 2.62 µM (inactive); in the assay with SW-620, 3.66 µM (inactive). Besides, the GI50 in the assay on T47D was 6.4 µM (inactive); in the assay with MOLT-4 it was 3.95 µM (inactive).
For `CCCCCCCCCCCCCCCCCCNc1ccn(C2OC(COP(=O)(O)OCC3OC(n4ccc(N)nc4=O)C(O)C3O)C(O)C2O)c(=O)n1` (stereo not given), the GI50 is 65 µM (inactive) in the assay with SN12C; 32 µM (inactive) in the assay with M14; > 100 µM (inactive) in the assay on MDA-MB-231; 38.2 µM (inactive) with HCC 2998; 55.6 µM with HCT-15; > 100 µM (inactive) with SF-539. For the same compound, the GI50 in the assay with COLO 205 is 47.3 µM (inactive); in the assay on SK-MEL-28, > 92 µM (inactive); in the assay with SNB-19 it was 39.7 µM (inactive); in the assay with SR, > 37.6 µM (inactive); in the assay with NCI-H522 it was > 37.8 µM (inactive); in the assay with NCI/ADR-RES, 47.1 µM (inactive). Moreover, the GI50 in the assay on SNB-75 was > 100 µM (inactive); in the assay with HL-60, 10.2 µM (inactive); with CAKI-1, 67.6 µM (inactive); with UACC-62, > 93.3 µM (inactive); in the assay with KM12 it was > 89.1 µM (inactive); in the assay with SW-620 it was > 89.7 µM (inactive). Also, the GI50 in the assay with T47D was > 78.3 µM (inactive); with MOLT-4 it was 2.45 µM (inactive).

(Values after ChEMBL document CHEMBL1201862, “PubChem BioAssay data set” (2004).)
